Reference: ChEMBL document CHEMBL2396541, “Synthesis and in vitro evaluation of glycosyl derivatives of luteinizing hormone-releasing hormone (LHRH)” (Bioorg Med Chem, 2013)

Legend:
[1] = Half life in human Caco2 cell homogenates at 200 uM by LC-MS analysis; format: ADME, cell-based; settings: Caco-2 cell homogenates
[2] = Half life in human; format: ADME, organism-based; settings: in vivo
Caco-2 = assay: Prodrug activation in human Caco2 cell homogenates assessed as LHRH release after 2 hrs; format: cell-based; settings: caco-2, 2 h
[3] = Apparent permeability across human Caco2 cells at 200 uM up to 120 mins by LC-MS analysis; format: ADME, cell-based; settings: Caco-2
[4] = Half life in human plasma; format: ADME, cell-free

Row | SMILES | half-life at 200 µM [1] [min] | half-life [2] [min] | Drug metabolism (Caco-2) | Papp at 2 h, 200 µM [3] [×10⁻⁶ cm/s] | half-life [4] [min]
1 | CC(C)C[C@H](NC(=O)CNC(=O)[C@H](Cc1ccc(O)cc1)NC(=O)[C@H](CO)NC(=O)[C@H](Cc1c[nH]c2ccccc12)NC(=O)[C@H](Cc1cnc[nH]1)NC(=O)[C@@H](N)CCC(=O)O)C(=O)N[C@@H](CCCNC(=N)N)C(=O)N1CCC[C@H]1C(=O)NCC(N)=O | 30.4 |  |  |  | 
2 | CC(C)C[C@H](NC(=O)CNC(=O)[C@H](Cc1ccc(O)cc1)NC(=O)[C@H](CO)NC(=O)[C@H](Cc1c[nH]c2ccccc12)NC(=O)[C@H](Cc1cnc[nH]1)NC(=O)[C@H](CCC(=O)O)NC(=O)CCC(=O)N[C@@H]1O[C@H](CO)[C@H](O)[C@H](O)[C@H]1O)C(=O)N[C@@H](CCCNC(=N)N)C(=O)N1CCC[C@H]1C(=O)NCC(N)=O | 51 |  | Not Active | 1.08 | 
3 | CC(C)C[C@H](NC(=O)CNC(=O)[C@H](Cc1ccc(O)cc1)NC(=O)[C@H](CO)NC(=O)[C@H](Cc1c[nH]c2ccccc12)NC(=O)[C@H](Cc1cnc[nH]1)NC(=O)[C@@H]1CCC(=O)N1)C(=O)N[C@@H](CCCNC(=N)N)C(=O)N1CCC[C@H]1C(=O)NCC(N)=O [GONADORELIN] | 32.6 |  |  | 0.398 | 3
4 | CC(C)C[C@H](NC(=O)CNC(=O)[C@H](Cc1ccc(O)cc1)NC(=O)[C@H](CO)NC(=O)[C@H](Cc1c[nH]c2ccccc12)NC(=O)[C@H](Cc1cnc[nH]1)NC(=O)[C@@H](N)CCC(=O)O)C(=O)N[C@@H](CCCNC(=N)N)C(=O)N1CCC[C@H]1C(=O)NCC(=O)N[C@@H]1O[C@H](C(N)=O)[C@@H](O)[C@H](O)[C@H]1O | 28.4 |  |  |  | 
5 | CC(C)C[C@H](NC(=O)CNC(=O)[C@H](Cc1ccc(O)cc1)NC(=O)[C@H](CO)NC(=O)[C@H](Cc1c[nH]c2ccccc12)NC(=O)[C@H](Cc1cnc[nH]1)NC(=O)[C@H](CCC(=O)O)NC(=O)CCC(=O)N[C@@H]1O[C@H](CO)[C@@H](O[C@@H]2O[C@H](CO)[C@H](O)[C@H](O)[C@H]2O)[C@H](O)[C@H]1O)C(=O)N[C@@H](CCCNC(=N)N)C(=O)N1CCC[C@H]1C(=O)NCC(N)=O | 77 |  | Not Active | 2.87 | 

Now from value to compound:

Row | half-life at 200 µM [1] [min] | half-life [2] [min] | Drug metabolism (Caco-2) | Papp at 2 h, 200 µM [3] [×10⁻⁶ cm/s] | half-life [4] [min] | SMILES
6 | 133 | 3 |  |  |  | CC(C)C[C@H](NC(=O)[C@@H](Cc1c[nH]c2ccccc12)NC(=O)[C@H](Cc1ccc(O)cc1)NC(=O)[C@H](CO)NC(=O)[C@H](Cc1c[nH]c2ccccc12)NC(=O)[C@H](Cc1cnc[nH]1)NC(=O)[C@H](CCC(N)=O)NC(=O)CCC(=O)N[C@@H]1O[C@H](CO)[C@@H](O[C@@H]2O[C@H](CO)[C@H](O)[C@H](O)[C@H]2O)[C@H](O)[C@H]1O)C(=O)N[C@@H](CCCNC(=N)N)C(=O)N1CCC[C@H]1C(=O)NCC(N)=O
7 | 73.5 |  | Not Active | 2.31 |  | CC(C)C[C@H](NC(=O)CNC(=O)[C@H](Cc1ccc(O)cc1)NC(=O)[C@H](CO)NC(=O)[C@H](Cc1c[nH]c2ccccc12)NC(=O)[C@H](Cc1cnc[nH]1)NC(=O)[C@H](CCC(N)=O)NC(=O)CCC(=O)N[C@@H]1O[C@H](CO)[C@@H](O)[C@H](O)[C@H]1O)C(=O)N[C@@H](CCCNC(=N)N)C(=O)N1CCC[C@H]1C(=O)NCC(N)=O
8 | 186 |  |  |  |  | CC(C)C[C@H](NC(=O)[C@@H](Cc1c[nH]c2ccccc12)NC(=O)[C@H](Cc1ccc(O)cc1)NC(=O)[C@H](CO)NC(=O)[C@H](Cc1c[nH]c2ccccc12)NC(=O)[C@H](Cc1c[nH]cn1)NC(=O)[C@@H]1CCC(=O)N1)C(=O)N[C@@H](CCCNC(=N)N)C(=O)N1CCC[C@H]1C(=O)NCC(N)=O [TRIPTORELIN]
9 | 56.7 |  | Not Active | 2.65 |  | CC(C)C[C@H](NC(=O)CNC(=O)[C@H](Cc1ccc(O)cc1)NC(=O)[C@H](CO)NC(=O)[C@H](Cc1c[nH]c2ccccc12)NC(=O)[C@H](Cc1cnc[nH]1)NC(=O)[C@H](CCC(=O)O)NC(=O)CCC(=O)N[C@@H]1O[C@H](CO)[C@@H](O)[C@H](O)[C@H]1O)C(=O)N[C@@H](CCCNC(=N)N)C(=O)N1CCC[C@H]1C(=O)NCC(N)=O
10 | 133 |  | Not Active | 0.76 |  | CC(C)C[C@H](NC(=O)CNC(=O)[C@H](Cc1ccc(O)cc1)NC(=O)[C@H](CO)NC(=O)[C@H](Cc1c[nH]c2ccccc12)NC(=O)[C@H](Cc1cnc[nH]1)NC(=O)[C@H](CCC(N)=O)NC(=O)CCC(=O)N[C@@H]1O[C@H](CO)[C@@H](O[C@@H]2O[C@H](CO)[C@H](O)[C@H](O)[C@H]2O)[C@H](O)[C@H]1O)C(=O)N[C@@H](CCCNC(=N)N)C(=O)N1CCC[C@H]1C(=O)NCC(N)=O
11 | 92.2 |  | Not Active | 1.62 |  | CC(C)C[C@H](NC(=O)CNC(=O)[C@H](Cc1ccc(O)cc1)NC(=O)[C@H](CO)NC(=O)[C@H](Cc1c[nH]c2ccccc12)NC(=O)[C@H](Cc1cnc[nH]1)NC(=O)[C@H](CCC(N)=O)NC(=O)CCC(=O)N[C@@H]1O[C@H](CO)[C@H](O)[C@H](O)[C@H]1O)C(=O)N[C@@H](CCCNC(=N)N)C(=O)N1CCC[C@H]1C(=O)NCC(N)=O
